For one data set, the target named is human cyclin B-CDK1 (Homo sapiens, UniProt P06493). As to the kind of experiment: FlashPlate kinase assay, cyclin B-CDK1, Rb substrate. Conditions: recombinant cyclin B-CDK1, Rb phosphorylation, 1 μM ATP. It is filed as biochemical. The procedure, abridged:
(§1)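 Recombinant human cyclin–CDK complexes, co-expressed in insect cells, phosphorylated His-tagged Rb (aa 386-928) coated on FlashPlates at 10 μg/ml. Reaction used 1 μM ATP plus 4 nM ^33P-ATP and 20 mM MgCl2 for 30 min at room temperature. % inhibition came from scintillation counts against no-enzyme and no-compound wells, and IC50 was the concentration halving radiolabel incorporation.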

The next data set has as its target human cyclin E-CDK2 (Homo sapiens, UniProt P24941). As to the kind of experiment: FlashPlate kinase assay, cyclin E-CDK2, Rb substrate. It is filed as biochemical. To be noted: recombinant cyclin E-CDK2, Rb phosphorylation, 1 μM ATP. The gist of the method: as §1
The target of the next data set is human cyclin D1-CDK4 (Homo sapiens, UniProt P11802). As to the kind of experiment: FlashPlate kinase assay, cyclin D1-CDK4, Rb substrate. Format: biochemical. To be noted: recombinant cyclin D1-CDK4, Rb phosphorylation, 1 μM ATP. The procedure, abridged:
as §1

Data set [1] has as its system HCT116, a colorectal carcinoma cell line. As to the kind of experiment: Tetrazolium dye proliferation assay (MTT assay). Format: cell-based. Conditions: Homo sapiens, HCT-116, HCT116 cells, inhibition of cell proliferation. The procedure, abridged: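 HCT116 cells in McCoy's 5A + 10% FCS, plated overnight, then dosed in duplicate with serial dilutions (final DMSO 0.3%) and incubated to growth-curve time points. MTT at 1 mg/ml for 2.5-3 h, formazan in ethanol, A570/650. IC50 by linear regression of log concentration vs % inhibition relative to blank and DMSO controls.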
On the technique in general: Tetrazolium dyes change colour on reduction, which living cells bring about.

What is called IC50 is the concentration that inhibits the measured activity by half. Broadly, the melting point is the temperature, or range, at which the solid turns liquid.

Chain of human cyclin B-CDK1 (P06493 whole entry, the tested form may be a part): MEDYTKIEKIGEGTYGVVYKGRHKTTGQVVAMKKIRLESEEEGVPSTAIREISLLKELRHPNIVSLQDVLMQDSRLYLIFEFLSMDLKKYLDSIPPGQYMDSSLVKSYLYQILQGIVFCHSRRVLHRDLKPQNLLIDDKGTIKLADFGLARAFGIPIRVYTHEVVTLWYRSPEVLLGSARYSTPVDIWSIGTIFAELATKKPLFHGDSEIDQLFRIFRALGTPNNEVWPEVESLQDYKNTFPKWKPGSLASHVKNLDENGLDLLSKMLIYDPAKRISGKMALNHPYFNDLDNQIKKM
Chain of human cyclin B-CDK1 (P14635 whole entry partner, the tested form may be a part): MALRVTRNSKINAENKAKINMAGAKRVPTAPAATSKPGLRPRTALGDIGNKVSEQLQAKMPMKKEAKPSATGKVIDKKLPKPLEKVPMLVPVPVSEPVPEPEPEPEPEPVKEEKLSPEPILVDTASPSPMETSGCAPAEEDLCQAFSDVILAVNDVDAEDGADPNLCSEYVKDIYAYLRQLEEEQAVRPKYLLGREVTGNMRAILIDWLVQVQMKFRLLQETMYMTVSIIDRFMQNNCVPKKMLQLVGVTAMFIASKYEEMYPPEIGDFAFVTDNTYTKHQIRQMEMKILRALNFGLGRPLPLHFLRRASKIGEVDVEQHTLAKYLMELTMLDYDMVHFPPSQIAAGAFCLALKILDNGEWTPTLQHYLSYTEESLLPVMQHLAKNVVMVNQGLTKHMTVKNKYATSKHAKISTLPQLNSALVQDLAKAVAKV
Chain of human cyclin D1-CDK4 (P11802 whole entry): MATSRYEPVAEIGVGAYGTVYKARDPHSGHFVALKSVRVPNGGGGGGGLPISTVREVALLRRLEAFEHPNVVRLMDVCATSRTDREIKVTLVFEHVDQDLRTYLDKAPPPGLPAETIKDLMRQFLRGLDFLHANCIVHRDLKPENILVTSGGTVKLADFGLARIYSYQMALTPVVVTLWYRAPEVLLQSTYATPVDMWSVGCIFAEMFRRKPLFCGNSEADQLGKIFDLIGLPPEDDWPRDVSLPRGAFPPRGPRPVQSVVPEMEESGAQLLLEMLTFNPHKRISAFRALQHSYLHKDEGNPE
Chain of human cyclin D1-CDK4 (P24385 whole entry partner): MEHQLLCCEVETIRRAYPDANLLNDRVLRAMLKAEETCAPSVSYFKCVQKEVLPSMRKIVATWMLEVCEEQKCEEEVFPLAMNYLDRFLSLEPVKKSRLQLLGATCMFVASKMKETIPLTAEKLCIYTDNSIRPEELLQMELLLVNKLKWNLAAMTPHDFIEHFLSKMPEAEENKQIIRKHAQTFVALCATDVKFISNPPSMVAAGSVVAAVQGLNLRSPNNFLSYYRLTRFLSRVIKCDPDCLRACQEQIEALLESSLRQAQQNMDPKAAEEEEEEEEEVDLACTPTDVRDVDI

On to `CCN(CC)CCOc1ccc(Nc2nc(N)c(C(=O)c3cccc(OC)c3)s2)cc1` [Example 145, [4-Amino-2-[4-(2-diethylaminoethoxy)-phenylamino]-thiazol-5-yl]-(3-methoxy-phenyl)-methanone], for which the melting point is 118 to 123 °C. Moreover, at human cyclin B-CDK1, the IC50 was 0.219 µM. Also, at human cyclin E-CDK2, the IC50 was 0.9 µM. Besides, the IC50 on human cyclin D1-CDK4 came out at 0.041 µM.
On to `COc1cccc(C(=O)c2sc(Nc3ccc(OCCN(C)C)cc3)nc2N)c1` [Example 144, [4-Amino-2-[4-(2-dimethylaminoethoxy)-phenylamino]-thiazol-5-yl]-(3-methoxy-phenyl)-methanone], for which the melting point was 130 °C (dec.). Moreover, at human cyclin B-CDK1, the IC50 was 2.49 µM. In addition, the IC50 on human cyclin E-CDK2 was found to be 4.54 µM. At human cyclin D1-CDK4, the IC50 was found to be 0.087 µM.
Compound `COc1cccc(C(=O)c2sc(Nc3ccc(OCCn4ccnc4)cc3)nc2N)c1` [Example 146, [4-Amino-2-[4-(2-imidazol-1-yl-ethoxy)-phenylamino]-thiazol-5-yl]-(3-methoxy-phenyl)-methanone] returned a melting point of 185 to 190 °C. Besides, on human cyclin B-CDK1, the IC50 amounted to 0.6 µM. Also, the IC50 on human cyclin E-CDK2 is 0.814 µM. The IC50 at human cyclin D1-CDK4 is 0.067 µM. The compound also displayed an IC50 in data set [1] of 4.19 µM.
In the case of `CCNCCOc1ccc(Nc2nc(N)c(C(=O)c3cccc(F)c3)s2)cc1` [Example 131, [4-Amino-2-[4-(2-ethylamino-ethoxy)-phenylamino]-thiazol-5-yl]-(3-fluoro-phenyl)-methanone], the IC50 on human cyclin B-CDK1 was 0.298 µM; on human cyclin E-CDK2, 0.892 µM; on human cyclin D1-CDK4, 0.52 µM; in data set [1], 0.693 µM.
The like results for `CCN1CCC(Oc2ccc(Nc3nc(N)c(C(=O)c4cccc(C5CC5)c4)s3)cc2)C1` (stereo not drawn) [Example 85, [4-Amino-2-[4-(1-ethyl-pyrrolidin-3-yloxy)-phenylamino]-thiazol-5-yl]-(3-cyclopropyl-phenyl)-methanone] were, in that order, 1.07 µM, 0.887 µM, 0.051 µM and 2.01 µM.
The like results for `CCCc1cc(C(=O)c2sc(Nc3ccc(OC4CCCN(CC)C4)cc3)nc2N)ccc1O` (stereo not drawn) [Example 88, [4-Amino-2-[4-(1-ethyl-piperidin-3-yloxy)-phenylamino]-thiazol-5-yl]-(4-hydroxy-3-propyl-phenyl)-methanone; Compound With Acetic Acid] were, in that order, 0.241 µM, 0.234 µM, 0.039 µM and 0.28 µM.
On to `CCNCCOc1ccc(Nc2nc(N)c(C(=O)c3ccc4c(c3)OCO4)s2)cc1` [Example 133, [4-Amino-2-[4-(2-ethylamino-ethoxy)-phenylamino]-thiazol-5-yl]-benzo[1,3]dioxol-5-yl-methanone], for which the IC50 at human cyclin B-CDK1 turned out to be 0.338 µM; on human cyclin E-CDK2, 3.17 µM; on human cyclin D1-CDK4, 0.029 µM; in data set [1], 3 µM.
Regarding `CN(C)C(C)(C)COc1ccc(Nc2nc(N)c(C(=O)c3cccc(C4CC4)c3)s2)cc1` [Example 71, [4-Amino-2-[4-(2-dimethylamino-2-methyl-propoxy)-phenylamino]-thiazol-5-yl]-(3-cyclopropyl-phenyl)-methanone], the IC50 at human cyclin B-CDK1 was 3.87 µM; on human cyclin E-CDK2, 2.11 µM; on human cyclin D1-CDK4 it was 0.039 µM; in data set [1] it was 2.36 µM.
The like results for `Nc1nc(Nc2ccc(OCCN3CCCC3)cc2)sc1C(=O)c1cccc(C2CC2)c1` [Example 72, [4-Amino-2-[4-(2-pyrrolidin-1-yl-ethoxy)-phenylamino]-thiazol-5-yl]-(3-cyclopropyl-phenyl)-methanone] were, in that order, 1.98 µM, 1.18 µM, 0.037 µM and 1.38 µM.
The like results for `CCN(CC)CCOc1ccc(Nc2nc(N)c(C(=O)c3ccc(O)c(F)c3)s2)cc1` [Example 123, [4-Amino-2-[4-(2-diethylamino-ethoxy)-phenylamino]-thiazol-5-yl]-(3-fluoro-4-hydroxy-phenyl)-methanone] were, in that order, 0.422 µM, 1.66 µM, 0.036 µM and 1.87 µM.
The like results for `C[C@H](COc1ccc(Nc2nc(N)c(C(=O)c3cccc(C4CC4)c3)s2)cc1)N(C)C` [Example 70, (R)-[4-Amino-2-[4-(2-dimethylamino-propoxy)-phenylamino]-thiazol-5-yl]-(3-cyclopropyl-phenyl)-methanone] were, in that order, 2.96 µM, 3.14 µM, 0.038 µM and 1.93 µM.
In the case of `Nc1nc(Nc2ccc(OCCN3CCCC3)cc2)sc1C(=O)c1ccc2c(c1)OCO2` [Example 57, [4-Amino-2-[4-(2-pyrrolidin-1-yl-ethoxy)-phenylamino]-thiazol-5-yl]-benzo[1,3]dioxol-5-yl-methanone], the IC50 on human cyclin B-CDK1 amounted to 0.376 µM; at human cyclin E-CDK2, 4.89 µM; at human cyclin D1-CDK4, 0.066 µM; in data set [1] it was 2.92 µM.
The like results for `CCCc1cc(C(=O)c2sc(Nc3ccc(OC[C@@H]4CCCN4C)cc3)nc2N)ccc1O` [Example 115, (S)-[4-Amino-2-[4-(1-methyl-pyrrolidin-2-ylmethoxy)-phenylamino]-thiazol-5-yl]-(4-hydroxy-3-propyl-phenyl)-methanone Acetate] were, in that order, 0.357 µM, 0.267 µM, 0.027 µM and 0.169 µM.
For the compound `CCc1cccc(C(=O)c2sc(Nc3ccc(OCC(C)(C)N(C)C)cc3)nc2N)c1` [Example 61, [4-Amino-2-[4-(2-dimethylamino-2-methyl-propoxy)-phenylamino]-thiazol-5-yl]-(3-ethyl-phenyl)-methanone], the IC50 at human cyclin B-CDK1 came to 1.21 µM; at human cyclin E-CDK2, 1.56 µM; on human cyclin D1-CDK4, 0.046 µM; in data set [1], 0.954 µM.
